Laboratory results: PMC7943599, “ATP signaling in the integrative neural center of Aplysia californica” (Scientific Reports, 2021)

Tests used:
[1] = target: T1, AcP2X (Aplysia P2X receptor) (Aplysia californica, UniProt E2QDA7); assay: two-electrode voltage clamp in Xenopus oocytes, agonist dose-response (fast component; slow component EC50 […]); assay type: cell-based
T1 construct: full-length CDS AcP2X (GenBank NP_001191558.1) expressed in Xenopus oocytes
T1 sequence (E2QDA7 1-434): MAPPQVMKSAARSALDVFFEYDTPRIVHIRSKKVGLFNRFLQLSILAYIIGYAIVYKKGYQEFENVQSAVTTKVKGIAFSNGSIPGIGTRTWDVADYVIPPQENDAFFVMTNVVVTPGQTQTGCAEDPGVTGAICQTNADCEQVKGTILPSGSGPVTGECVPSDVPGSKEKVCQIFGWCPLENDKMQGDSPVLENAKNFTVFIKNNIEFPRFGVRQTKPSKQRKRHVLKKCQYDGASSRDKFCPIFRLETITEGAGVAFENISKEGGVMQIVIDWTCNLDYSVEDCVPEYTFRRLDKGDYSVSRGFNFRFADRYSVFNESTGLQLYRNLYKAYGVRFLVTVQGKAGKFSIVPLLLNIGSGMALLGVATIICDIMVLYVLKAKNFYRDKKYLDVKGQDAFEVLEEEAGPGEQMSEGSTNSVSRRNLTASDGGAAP

[2] = target: T1, AcP2X (Aplysia P2X receptor); assay: two-electrode voltage clamp in Xenopus oocytes, inhibition of current evoked by […] ATP (fast component); assay type: cell-based

IC50 [2] | SMILES | EC50 [1]
– | Nc1ncnc2c1ncn2[C@@H]1O[C@H](COP(=O)(O)OP(=O)(O)OP(=O)(O)O)[C@@H](O)[C@H]1O [ATP] | 306 µM
211 µM | Cc1nc(/N=N/c2ccc(S(=O)(=O)O)cc2S(=O)(=O)O)c(COP(=O)(O)O)c(C=O)c1O [PPADS] | –
